Experimental findings from paper PMC5532651, “Bistratamides M and N, Oxazole-Thiazole Containing Cyclic Hexapeptides Isolated from Lissoclinum bistratum Interaction of Zinc (II) with Bistratamide K” (Marine Drugs, 2017) are described below.

The structures appear in SMILES notation.

Data set [1] has as its system MDA-MB-231 human breast adenocarcinoma cells. The data set can be described thus: Cell proliferation / cytotoxicity, MDA-MB-231 breast. The class given is cell-based. To be noted: for LC50: concentration producing 50% cell death vs control; for GI50: concentration producing 50% inhibition of cell growth vs control, NCI algorithm; for TGI: concentration producing total growth inhibition vs control. Here is the method: (§1) The cytotoxic activity of compounds 1 and 2 was tested against NSLC A-549 human lung carcinoma cells, MDA-MB-231 human breast adenocarcinoma cells, HT-29 human colorectal carcinoma cells, and PSN1 (human pancreatic carcinoma cells). The concentration giving 50% inhibition of cell growth (GI50) was calculated according to the procedure described in the literature. Cell survival was estimated using the National Cancer Institute (NCI) algorithm. Three dose response parameters were calculated for 1 and 2.

Data set [2] deals with HT-29 human colorectal carcinoma cells. In words: Cell proliferation / cytotoxicity, HT-29 colon. The class given is cell-based. As to conditions: for LC50: concentration producing 50% cell death vs control; for GI50: concentration producing 50% inhibition of cell growth vs control, NCI algorithm; for TGI: concentration producing total growth inhibition vs control. Here is the method: as §1

Data set [3] has as its system NSLC A-549 human lung carcinoma cells. In words: Cell proliferation / cytotoxicity, NSLC A-549 lung. It counts as cell-based. As to conditions: for LC50: concentration producing 50% cell death vs control; for GI50: NCI algorithm; for TGI: concentration producing total growth inhibition vs control. Here is the method:
as §1

The subject of data set [4] is PSN1 (human pancreatic carcinoma cells). The data set can be described thus: Cell proliferation / cytotoxicity, PSN1 pancreas. The class given is cell-based. To be noted: for LC50: concentration producing 50% cell death vs control; for GI50: concentration producing 50% inhibition of cell growth vs control, NCI algorithm; for TGI: concentration producing total growth inhibition vs control. Here is the method: as §1

Data set [5] deals with recombinant human topoisomerase I. In words: Enzymatic Topoisomerase 1 (Top1) assay. As to conditions: up to highest concentration tested 100 μM (range 100 to 0.2 μM); 50 pM enzyme; 1 h preincubation, 1 h reaction, room temperature, pH 8.0; H19 dye fluorescence. It counts as biochemical. Here is the method:
The activity of human topoisomerase I was determined based on the increase in fluorescence of a commercial dye (“H19”, Profoldin, Westborough, MA, USA) when interacting with DNA and the higher number of interaction points present in supercoiled DNA with respect to relaxed DNA. Therefore, the activity of the enzyme causes a decrease of fluorescence intensity when the probe is added. The enzyme reaction is performed in a final volume of 20 μL in 384 black wells. Compounds 1 and 2, at twice their final concentrations, were mixed with 50 pM recombinant human topoisomerase I (Profoldin, Westborough, MA, USA) in 10 μL of 10 mM Tris-HCl pH 8.0 with 150 mM sodium chloride, 3 mM magnesium chloride and 5% (v/v) glycerol and incubated for 1 h at room temperature. Then, reaction was started by the addition of 10 μL of supercoiled DNA (Profoldin, Westborough, MA, USA) at 25 μg/mL in the same buffer and the mixture was incubated at room temperature for 1 h. […] After 1 h at room temperature the degree of conversion from supercoiled to relaxed DNA was determined by monitoring fluorescence intensity (excitation at 485 nm, emission at 535 nm) in a microtiter plate reader. […] IC50 values were calculated by fitting the results to a typical four parameters logistic curve by nonlinear regression analysis.

In data set [6] the test system is human tumor cell lines A-549 (lung), HT-29 (colon), MDA-MB-231 (breast) and PSN1 (pancreas). In words: Cytotoxicity against four human tumor cell lines (summary in words). The class given is cell-based. To be noted: GI50 values in the micromolar range. Here is the method:
as §1

Where [7] appears, read: concentration producing 50% inhibition of cell growth vs control.

Consider `CC[C@H](C)[C@@H]1NC(=O)c2csc(n2)[C@@H](C)NC(=O)c2coc(n2)[C@H](C)NC(=O)c2csc1n2` [Bistratamide N (2), Bistratamide N], for which the 50% lethal concentration (LC50) (in general, the concentration that kills 50% of the test population) in data set [1] is above 20.0 µM; in data set [2], above 20 µM; in data set [3], above 20.0 µM; in data set [4] it was above 20.0 µM. Also, the GI50 – broadly, the concentration at which growth is held to half of that of the control – in data set [1] was above 20 µM; in data set [2] it was 13 µM; in data set [3] (setting [7]) it was 11 µM; in data set [4] it was 15 µM. The total growth inhibition concentration (TGI) (in general, the concentration giving total growth inhibition) in data set [1] was above 20.0 µM; in data set [2], above 20 µM; in data set [3] it was above 20.0 µM; in data set [4], above 20.0 µM. Also, the Top1 inhibition result in data set [5] is given as “failed to show any hint of inhibition even at the highest concentration tested”. For the same compound, the “cytotoxic activity (in words)” value in data set [6] is “moderate cytotoxic activity with GI50 values in the micromolar range”.
As to `COc1cccc2c1C(=O)c1c(O)c3c(c(O)c1C2=O)C[C@@](O)(C(=O)CO)C[C@@H]3O[C@H]1C[C@H](N)[C@H](O)[C@H](C)O1` [Doxorubicin, reference compound], the GI50 in data set [1] (Homo sapiens) is 0.2 µM; in data set [2] (Homo sapiens) it was 0.3 µM; in data set [3] (Homo sapiens, A549, concentration producing 50% inhibition of cell growth vs control), 0.2 µM; in data set [4] (Homo sapiens), 0.2 µM. The LC50 in data set [1] is 2.4 µM; in data set [2] it was above 17.2 µM; in data set [3], above 17.2 µM; in data set [4], 3.1 µM. The total growth inhibition concentration (TGI) in data set [1] came to 0.5 µM; in data set [2], 0.9 µM; in data set [3], 0.9 µM; in data set [4], 0.5 µM.
In the case of `CC[C@H](C)[C@@H]1NC(=O)c2csc(n2)[C@H](C)NC(=O)c2coc(n2)[C@H](C)NC(=O)c2csc1n2` [Bistratamide M (1), Bistratamide M], the LC50 in data set [1], in data set [2], in data set [3] and in data set [4] was above 20.0 µM throughout. For the same compound, the GI50 in data set [1] turned out to be 18 µM; in data set [2], 16 µM; in data set [3] (setting [7]), 9.1 µM; in data set [4], 9.8 µM. Moreover, the TGI in data set [1], in data set [2], in data set [3] and in data set [4] was above 20.0 µM each time. For the same compound, the Top1 inhibition result in data set [5] is “failed to show any hint of inhibition even at the highest concentration tested”. In addition, in data set [6], the “cytotoxic activity (in words)” value is given as “moderate cytotoxic activity with GI50 values in the micromolar range”.
